This assay has as its target ROCK2 (Homo sapiens, UniProt O75116). The assay can be described thus: ROCK assay: phosphorylation of FITC peptide substrate, LABCHIP 3000 mobility shift. The following applies: 5 μM ATP, 1.5 μM peptide substrate; read-out: ROCK2 Activity (ROCK IC50 range). It counts as biochemical. In outline: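 IC50 values come from curve-fitting percent kinase inhibition across a compound dilution series. The reaction is started with Rho kinase variant in HEPES pH 7.5 buffer with MgCl2, Brij-35 and DTT, with 5 μM ATP, 1.5 μM FITC-labelled peptide and under 2% DMSO. After EDTA quench, product and substrate are separated by microfluidic mobility shift.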

Structures can show the parent of a compound that is named as a salt.

Sequence of ROCK2 (O75116 whole entry, species assumed): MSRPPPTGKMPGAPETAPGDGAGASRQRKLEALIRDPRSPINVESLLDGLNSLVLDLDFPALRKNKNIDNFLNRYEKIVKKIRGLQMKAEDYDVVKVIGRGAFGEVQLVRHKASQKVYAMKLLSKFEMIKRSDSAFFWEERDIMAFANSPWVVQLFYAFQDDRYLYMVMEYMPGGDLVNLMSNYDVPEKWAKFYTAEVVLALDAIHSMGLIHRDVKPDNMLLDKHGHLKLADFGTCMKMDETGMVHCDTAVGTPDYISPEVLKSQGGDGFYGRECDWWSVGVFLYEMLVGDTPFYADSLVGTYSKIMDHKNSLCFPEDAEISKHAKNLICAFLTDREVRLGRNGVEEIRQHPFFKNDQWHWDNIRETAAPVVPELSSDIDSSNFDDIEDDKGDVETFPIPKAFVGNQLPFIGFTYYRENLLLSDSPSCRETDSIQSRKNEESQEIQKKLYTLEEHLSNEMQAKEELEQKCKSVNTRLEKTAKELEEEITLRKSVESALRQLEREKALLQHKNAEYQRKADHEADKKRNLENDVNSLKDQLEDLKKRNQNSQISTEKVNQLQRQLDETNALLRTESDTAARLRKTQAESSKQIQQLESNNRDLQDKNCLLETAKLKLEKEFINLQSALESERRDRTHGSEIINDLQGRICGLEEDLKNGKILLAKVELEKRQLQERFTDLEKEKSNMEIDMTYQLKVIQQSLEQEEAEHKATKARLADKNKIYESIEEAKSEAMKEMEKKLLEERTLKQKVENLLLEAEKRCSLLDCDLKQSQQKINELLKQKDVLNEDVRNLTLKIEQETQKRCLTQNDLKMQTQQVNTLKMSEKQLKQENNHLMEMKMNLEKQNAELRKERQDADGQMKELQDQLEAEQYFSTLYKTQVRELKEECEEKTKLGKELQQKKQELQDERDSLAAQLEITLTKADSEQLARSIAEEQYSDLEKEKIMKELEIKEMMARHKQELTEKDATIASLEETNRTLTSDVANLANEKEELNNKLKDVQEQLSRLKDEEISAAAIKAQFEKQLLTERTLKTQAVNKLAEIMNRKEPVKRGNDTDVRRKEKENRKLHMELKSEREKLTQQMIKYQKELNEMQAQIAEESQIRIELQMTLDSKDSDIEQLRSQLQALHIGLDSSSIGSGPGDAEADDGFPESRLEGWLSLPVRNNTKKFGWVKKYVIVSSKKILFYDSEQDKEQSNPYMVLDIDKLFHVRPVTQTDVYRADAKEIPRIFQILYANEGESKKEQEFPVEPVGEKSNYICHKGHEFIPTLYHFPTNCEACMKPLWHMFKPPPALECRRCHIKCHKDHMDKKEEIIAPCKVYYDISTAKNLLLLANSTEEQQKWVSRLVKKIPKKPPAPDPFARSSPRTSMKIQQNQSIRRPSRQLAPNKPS

The term IC50 denotes the concentration at which inhibition is half-maximal. With `O=C(NC1CC2(C1)CC(c1n[nH]c(=O)c3ccccc13)C2)c1cnn2cc(-c3cnn(CC4CC4)c3)ccc12` [Example 218, 6-(1-(cyclopropylmethyl)-1H-pyrazol-4-yl)-N-((aR)-6-(4-oxo-3,4-dihydrophthalazin-1-yl)spiro[3.3]heptan-2-yl)pyrazolo[1,5-a]pyridine-3-carboxamide], the IC50 lay in the range of 0.2 to 2 nM.
To `Cn1nc(C2CC2)cc1C(=O)NC1CC2(C1)CC(c1n[nH]c(=O)c3ccccc13)C2` [Example 24, 3-cyclopropyl-1-methyl-N-[(aR)-6-(4-oxo-3,4-dihydrophthalazin-1-yl)spiro[3.3]heptan-2-yl]-1H-pyrazole-5-carboxamide] belongs 2.01 to 5 nM.
To `CC(C)(O)Cn1nc(C(=O)NC2CC3(C2)CC(c2n[nH]c(=O)c4ccccc24)C3)c2ccc(C=CC3CC3)cc21` (stereo not shown) [Example 149, 6-((E)-2-cyclopropylvinyl)-1-(2-hydroxy-2-methylpropyl)-N-((αR)-6-(4-oxo-3,4-dihydrophthalazin-1-yl)spiro[3.3]heptan-2-yl)-1H-indazole-3-carboxamide] belongs 5.1 to 15 nM.
On to `Cc1noc(C)c1-c1ccc2c(C(=O)NC3CC4(C3)CC(c3n[nH]c(=O)c5ccccc35)C4)nn(CC(C)(C)O)c2c1` (stereo not shown) [Example 155, 6-(3,5-dimethylisoxazol-4-yl)-1-(2-hydroxy-2-methylpropyl)-N-((αR)-6-(4-oxo-3,4-dihydrophthalazin-1-yl)spiro[3.3]heptan-2-yl)-1H-indazole-3-carboxamide], for which the half-maximal inhibitory concentration (IC50) is 2.01 to 5 nM.
The value for `O=C(NC1CC2(C1)CC(c1n[nH]c(=O)c3ccccc13)C2)c1cnn2ccc(OCCN3CCOCC3)cc12` [Example 73, 5-(2-morpholinoethoxy)-N-((aR)-6-(4-oxo-3,4-dihydrophthalazin-1-yl)spiro[3.3]heptan-2-yl)pyrazolo[1,5-a]pyridine-3-carboxamide] was 2.01 to 5 nM; that for `[H][C@]1(c2n[nH]c(=O)c3ccccc32)C[C@]2(C[C@@H](NC(=O)c3cc4cccc(O)c4[nH]3)C2)C1` (stereo partly drawn) [Example 327, 7-hydroxy-N-((aR)-6-(4-oxo-3,4-dihydrophthalazin-1-yl)spiro[3.3]heptan-2-yl)-1H-indole-2-carboxamide] was 2.01 to 5 nM; that for `[H][C@]1(c2n[nH]c(=O)c3ccccc32)C[C@]2(C[C@@H](NC(=O)c3cnc4cc(-c5cccnc5)ccn34)C2)C1` (stereo partly drawn) [Example 452, N-((aR)-6-(4-oxo-3,4-dihydrophthalazin-1-yl)spiro[3.3]heptan-2-yl)-7-(pyridin-3-yl)imidazo[1,2-a]pyridine-3-carboxamide] was 0.2 to 2 nM.
In the case of `O=C(NC1CC2(C1)CC(c1n[nH]c(=O)c3ccccc13)C2)c1ccn(C2CC2)n1` [Example 29, 1-cyclopropyl-N-[(aR)-6-(4-oxo-3,4-dihydrophthalazin-1-yl)spiro[3.3]heptan-2-yl]-1H-pyrazole-3-carboxamide], the 50% inhibitory concentration (IC50) fell in the range of 5.1 to 15 nM.
With `[H][C@]1(c2n[nH]c(=O)c3ccccc32)C[C@]2(C[C@@H](NC(=O)c3cnc4cc(N(C)CCOC)ccn34)C2)C1` (stereo partly drawn) [Example 397, 7-((2-methoxy-ethyl)(methyl)amino)-N-((aR)-6-(4-oxo-3,4-dihydrophthalazin-1-yl)spiro[3.3]heptan-2-yl)imidazo[1,2-a]pyridine-3-carboxamide], the 50% inhibitory concentration (IC50) fell in the range of 0.2 to 2 nM.
Consider `[H][C@]1(c2n[nH]c(=O)c3ccccc32)C[C@]2(C[C@@H](NC(=O)C3CCc4ccccc43)C2)C1` (stereo partly drawn) [Example 321, N-((aR)-6-(4-oxo-3,4-dihydrophthalazin-1-yl)spiro[3.3]heptan-2-yl)-2,3-dihydro-1H-indene-1-carboxamide], for which the IC50 lay within 100 to 2100 nM.
Regarding `[H][C@]1(c2n[nH]c(=O)c3ccccc32)C[C@]2(C[C@@H](NC(=O)c3nc(C(C)C)n4ccccc34)C2)C1` (stereo partly drawn) [Example 435, 3-isopropyl-N-((aR)-6-(4-oxo-3,4-dihydrophthalazin-1-yl)spiro[3.3]heptan-2-yl)imidazo[1,5-a]pyridine-1-carboxamide], the 50% inhibitory concentration (IC50) fell in the range of 5.1 to 15 nM.
In the case of `[H][C@]1(c2n[nH]c(=O)c3ccccc32)C[C@]2(C[C@@H](NC(=O)c3ccc(N4CCCC4)cn3)C2)C1` (stereo partly drawn) [Example 369, N-((aR)-6-(4-oxo-3,4-dihydrophthalazin-1-yl)spiro[3.3]heptan-2-yl)-5-(pyrrolidin-1-yl)picolinamide], the IC50 fell in the range of 15.1 to 100 nM.
Regarding `[H][C@]1(c2n[nH]c(=O)c3ccccc32)C[C@]2(C[C@@H](NC(=O)c3ccc(-c4cc[nH]n4)cc3)C2)C1` (stereo partly drawn) [Example 357, N-((aR)-6-(4-oxo-3,4-dihydrophthalazin-1-yl)spiro[3.3]heptan-2-yl)-4-(1H-pyrazol-3-yl)benzamide], the 50% inhibitory concentration (IC50) lay in the range of 15.1 to 100 nM.
To `[H][C@]1(c2n[nH]c(=O)c3ccccc32)C[C@]2(C[C@@H](NC(=O)c3c[nH]c4ccccc34)C2)C1` (stereo partly drawn) [Example 300, N-((aR)-6-(4-oxo-3,4-dihydrophthalazin-1-yl)spiro[3.3]heptan-2-yl)-1H-indole-3-carboxamide] belongs 5.1 to 15 nM; to `Cn1cc(-c2ccn3ncc(C(=O)NC4CC5(C4)CC(c4n[nH]c(=O)c6ccccc46)C5)c3c2)cn1` [Example 85, 5-(1-methyl-1H-pyrazol-4-yl)-N-((aR)-6-(4-oxo-3,4-dihydrophthalazin-1-yl)spiro[3.3]heptan-2-yl)pyrazolo[1,5-a]pyridine-3-carboxamide], 2.01 to 5 nM.
As to `[H][C@]1(c2n[nH]c(=O)c3ccccc32)C[C@]2(C[C@@H](NC(=O)c3cnc4c(F)cc(C(F)(F)F)cn34)C2)C1` (stereo partly drawn) [Example 404, 8-fluoro-N-((aR)-6-(4-oxo-3,4-dihydrophthalazin-1-yl)spiro[3.3]heptan-2-yl)-6-(trifluoromethyl)imidazo[1,2-a]pyridine-3-carboxamide], the IC50 lay within 15.1 to 100 nM.
Take `Cc1nc(N2CCCC2)sc1C(=O)NC1CC2(C1)CC(c1n[nH]c(=O)c3ccccc13)C2` [Example 35, 4-methyl-N-[(aR)-6-(4-oxo-3,4-dihydrophthalazin-1-yl)spiro[3.3]heptan-2-yl]-2-(pyrrolidin-1-yl)-1,3-thiazole-5-carboxamide]: the IC50 is 5.1 to 15 nM.
As for `O=C(NC1CC2(C1)CC(c1n[nH]c(=O)c3ccccc13)C2)c1cnn2cc(OC3CCOCC3)ccc12` (stereo not drawn) [Example 135, N-((αR)-6-(4-oxo-3,4-dihydrophthalazin-1-yl)spiro[3.3]heptan-2-yl)-6-((tetrahydro-2H-pyran-4-yl)oxy)pyrazolo[1,5-α]pyridine-3-carboxamide], the IC50 lay in the range of 0.2 to 2 nM.
Consider `[H][C@]1(c2n[nH]c(=O)c3ccccc32)C[C@]2(C[C@@H](NC(=O)c3cnc4cc(C)c(F)cn34)C2)C1` (stereo partly drawn) [Example 410, 6-fluoro-7-methyl-N-((aR)-6-(4-oxo-3,4-dihydrophthalazin-1-yl)spiro[3.3]heptan-2-yl)imidazo[1,2-a]pyridine-3-carboxamide], for which the IC50 was in the range of 2.01 to 5 nM.
For `[H][C@]1(c2n[nH]c(=O)c3ccccc32)C[C@]2(C[C@@H](NC(=O)c3cc4nccnc4s3)C2)C1` (stereo partly drawn) [Example 303, N-((aR)-6-(4-oxo-3,4-dihydrophthalazin-1-yl)spiro[3.3]heptan-2-yl)thieno[2,3-b]pyrazine-6-carboxamide], the IC50 lay within 5.1 to 15 nM.
The value for `Cn1nc(C(=O)NC2CC3(C2)CC(c2n[nH]c(=O)c4ccccc24)C3)cc1OC(F)F` [Example 28, 5-(difluoromethoxy)-1-methyl-N-[(aR)-6-(4-oxo-3,4-dihydrophthalazin-1-yl)spiro[3.3]heptan-2-yl]-1H-pyrazole-3-carboxamide] was 15.1 to 100 nM; that for `O=C(NC1CC2(C1)CC(c1n[nH]c(=O)c3ccccc13)C2)c1cnn2cc(N3CCC(F)C3)ccc12` [Example 89, 6-((S)-3-fluoropyrrolidin-1-yl)-N-((aR)-6-(4-oxo-3,4-dihydrophthalazin-1-yl)spiro[3.3]heptan-2-yl)pyrazolo[1,5-a]pyridine-3-carboxamide] was 0.2 to 2 nM; that for `[2H]C([2H])([2H])n1cc(-c2ccc3c(c2)CCN3C(=O)NC2CC3(C2)CC(c2n[nH]c(=O)c4ccccc24)C3)cn1` [Example 239, 5-(1-(^2H3)methyl-1H-pyrazol-4-yl)-N-((aR)-6-(4-oxo-3,4-dihydrophthalazin-1-yl)spiro[3.3]heptan-2 yl)indoline-1-carboxamide] was 0.2 to 2 nM.
`Cn1nc(C(=O)NC2CC3(C2)CC(c2n[nH]c(=O)c4ccccc24)C3)cc1C1CC1` [Example 26, 5-cyclopropyl-1-methyl-N-[(aR)-6-(4-oxo-3,4-dihydrophthalazin-1-yl)spiro[3.3]heptan-2-yl]-1H-pyrazole-3-carboxamide]: the half-maximal inhibitory concentration (IC50) is 2.01 to 5 nM.
The value for `[H][C@]1(c2n[nH]c(=O)c3ccccc32)C[C@]2(C[C@@H](NC(=O)c3cnn4cc(OCC(C)(C)OC(=O)[C@@H](N)C(C)C)ccc34)C2)C1` (stereo partly drawn) [Example 269, (S)-2-methyl-1-((3-(((aR)-6-(4-oxo-3,4-dihydrophthalazin-1-yl)spiro[3.3]heptan-2-yl)carbamoyl)pyrazolo[1,5-a]pyridin-6-yl)oxy)propan-2-yl2-amino-3-methylbutanoate, TFA] was 0.2 to 2 nM.
The value for `CN1CCN(Cc2ccc3c(C(=O)NC4CC5(C4)CC(c4n[nH]c(=O)c6ccccc46)C5)cnn3c2)CC1` [Example 201, 6-((4-methylpiperazin-1-yl)methyl)-N-((aR)-6-(4-oxo-3,4-dihydrophthalazin-1-yl)spiro[3.3]heptan-2-yl)pyrazolo[1,5-a]pyridine-3-carboxamide] was 2.01 to 5 nM.
`[H][C@]1(c2n[nH]c(=O)c3ccccc32)C[C@]2(C[C@@H](NC(=O)c3ccc(C(F)(F)F)cn3)C2)C1` (stereo partly drawn) [Example 370, N-((aR)-6-(4-oxo-3,4-dihydrophthalazin-1-yl)spiro[3.3]heptan-2-yl)-5-(trifluoromethyl) picolinamide]: the IC50 lay within 5.1 to 15 nM.
The value for `[H][C@]1(c2n[nH]c(=O)c3ccccc32)C[C@]2(C[C@@H](NC(=O)c3cnc4cc(C(C)=O)ccn34)C2)C1` (stereo partly drawn) [Example 426, 7-acetyl-N-((aR)-6-(4-oxo-3,4-dihydrophthalazin-1-yl)spiro[3.3]heptan-2-yl)imidazo[1,2-a]pyridine-3-carboxamide] was 0.2 to 2 nM.
